# Active and inactive are the calls of the source.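 How the source made its calls: active means IC50 at or below 10 µM; inactive means IC50 above 10 µM.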
# Tested on: E. coli V66 + T4 gene 2 mutant phage, OD growth
# Assay: RecBCD inhibition via phage-restricted bacterial growth – absorbance, V66 E. coli, mutant T4 phage, counter-screen for AddAB inhibitor project, dose response (AID 492957)
compound,measurement,value
O=C(NCc1cccnc1)c1ccc([N+](=O)[O-])o1,IC50,86.4 µM (inactive)

# — PubChem BioAssay AID492957 (The Scripps Research Institute Molecular Screening Center, 2010)
